The values below come from patent US20030236212A1, “Functionalized long chain derivatives as acyl coenzyme-A mimics, compositions thereof, and methods of cholesterol management and related uses” (priority 2002, published 2003).

Where two headings read alike, the source gives them in different places.

This data set concerns obese female Zucker rats. Briefly: Oral daily treatment of obese female Zucker rats for 14 days (body weight, serum lipids, glucose, insulin). The settings on record: for change in vivo at 30 mg/kg/day / change in vivo at 30 mg/kg: 30 mg/kg/day; for change in vivo at 100 mg/kg/day / change in vivo at 100 mg/kg: 100 mg/kg/day. On the set-up: HDL-C / Glucose / Insulin / NEFA / BHA / TG / TC / Non HDL-C: unit not given here. The class given is in vivo, rat. As for the experimental part: The dosing vehicle was administered to control animals in parallel experiments.
Body weight was determined daily prior to dosing. Animals were allowed free access to rodent chow and water throughout the study. Blood glucose was determined after a 6-hour fast in the afternoon without anesthesia from a tail vein. Serum was also prepared from a blood sample subsequently obtained from the orbital venous plexus (with O2/CO2 anesthesia) prior to and after one week treatment and used lipid and insulin determinations. At two weeks, blood glucose was again determined after a 6-hour fast without anesthesia from a tail vein. Soon thereafter, animals were sacrificed by CO2 inhalation in the afternoon and cardiac blood serum was collected and assessed for various lipids and insulin.

Setting [1] is: obese female Zucker rats, oral gavage daily 14 days, 100 mg/kg.
The mark [2] stands for this setting: obese female Zucker rats, oral, 14 days, 5 mg/kg/day (Table 1).
[3] abbreviates: Rattus norvegicus, 336 h, obese female Zucker rats, oral daily, fourteen days, read-out: % wt. gain.
The mark [4] stands for this setting: Rattus norvegicus, 336 h, obese female Zucker rats, oral daily, fourteen days, read-out: BHA, Percent Change from Pre-treatment.
Setting [5] is: Rattus norvegicus, 336 h, obese female Zucker rats, oral daily, fourteen days, read-out: Glucose, Percent Change from Pre-treatment.
Where [6] appears, read: Rattus norvegicus, 336 h, obese female Zucker rats, oral daily, fourteen days, read-out: HDL-C, Percent Change from Pre-treatment.
The mark [7] stands for this setting: Rattus norvegicus, 336 h, obese female Zucker rats, oral daily, fourteen days, read-out: Insulin, Percent Change from Pre-treatment.
The mark [8] stands for this setting: Rattus norvegicus, 336 h, obese female Zucker rats, oral daily, fourteen days, read-out: NEFA, Percent Change from Pre-treatment.
[9] abbreviates: Rattus norvegicus, 336 h, obese female Zucker rats, oral daily, fourteen days, read-out: Non HDL-C, Percent Change from Pre-treatment.
The mark [10] stands for this setting: Rattus norvegicus, 336 h, obese female Zucker rats, oral daily, fourteen days, read-out: TC, Percent Change from Pre-treatment.
Where [11] appears, read: Rattus norvegicus, 336 h, obese female Zucker rats, oral daily, fourteen days, read-out: TG, Percent Change from Pre-treatment.

Regarding `CN(CCOc1ccc(CC2SC(=O)NC2=O)cc1)c1ccccn1` (centres unmarked) [Compound 2, 5-{4-[2-(Methyl-pyridin-2-yl-amino)-ethoxy]-benzyl}-thiazolidine-2,4-dione, reference compound], the blood glucose levels result (fasted obese female Zucker rats, oral gavage daily 14 days, 100 mg/kg) is reported as “reduction”. Under “fasted obese female Zucker rats, two weeks of treatment, 100 mg/kg”, the “serum insulin relative to pretreatment” value was “reduced”. Moreover, under setting [1], the “liver to body weight” value is reported as “slightly reduced” and the “weight gain, percent of initial weight after two weeks” value is listed as “greater than 15%”. For the same compound, under setting [2], the BHA was 15.6 ± 0.6, the Glucose was −11.1 ± 4.5, the HDL-C is given as −4.6 ± 8.8 and the Insulin is listed as −53.3 ± 5.2. For the same compound, under setting [2], the NEFA came to 0.034 ± 0.001, the “Non HDL-C” value was −54.1 ± 5.6, the TC is −50.2 ± 1.8 and the TG is 53 ± 14.

Turning to `CC(C)(CCCCOCCCCC(C)(C)COP(=O)(O)O)COP(=O)(O)O.N.N.N.N` [Compound A, Phosphoric acid mono-16-(5,5-dimethyl-6-phosphonooxyhexyloxy)-2,2-dimethylhexyl] ester, tetraammonium salt], the change in vivo at 10 mg/kg/day (Rattus norvegicus, 336 h, obese female Zucker rats, oral daily, fourteen days, 10 mg/kg/day, read-out: % wt. gain) is 9%. The change in vivo at 10 mg/kg is 102% (Rattus norvegicus, 336 h, obese female Zucker rats, oral daily, fourteen days, 10 mg/kg/day, read-out: BHA, Percent Change from Pre-treatment); -9% (Rattus norvegicus, 336 h, obese female Zucker rats, oral daily, fourteen days, 10 mg/kg/day, read-out: Glucose, Percent Change from Pre-treatment); 179% (Rattus norvegicus, 336 h, obese female Zucker rats, oral daily, fourteen days, 10 mg/kg/day, read-out: HDL-C, Percent Change from Pre-treatment); -7% (Rattus norvegicus, 336 h, obese female Zucker rats, oral daily, fourteen days, 10 mg/kg/day, read-out: Insulin, Percent Change from Pre-treatment); 14% (Rattus norvegicus, 336 h, obese female Zucker rats, oral daily, fourteen days, 10 mg/kg/day, read-out: NEFA, Percent Change from Pre-treatment); 67% (Rattus norvegicus, 336 h, obese female Zucker rats, oral daily, fourteen days, 10 mg/kg/day, read-out: Non HDL-C, Percent Change from Pre-treatment). Also, the change in vivo at 10 mg/kg was 115% (Rattus norvegicus, 336 h, obese female Zucker rats, oral daily, fourteen days, 10 mg/kg/day, read-out: TC, Percent Change from Pre-treatment) and 11% (Rattus norvegicus, 336 h, obese female Zucker rats, oral daily, fourteen days, 10 mg/kg/day, read-out: TG, Percent Change from Pre-treatment). The change in vivo at 30 mg/kg/day under setting [3] worked out at 3%. For the same compound, the change in vivo at 30 mg/kg under setting [4] was 141%; the change in vivo at 30 mg/kg under setting [5] was 1%; the change in vivo at 30 mg/kg under setting [6] was 228%; the change in vivo at 30 mg/kg under setting [7] was -16%; the change in vivo at 30 mg/kg under setting [8] is -32%; the change in vivo at 30 mg/kg under setting [9] turned out to be 71%. For the same compound, the change in vivo at 30 mg/kg under setting [10] stood at 164% and the change in vivo at 30 mg/kg under setting [11] is -31%. Also, the change in vivo at 100 mg/kg/day under setting [3] is 4%. In addition, the change in vivo at 100 mg/kg by setting is: under setting [4], 257%; under setting [5], 6%; under setting [6], 559%; under setting [7], 0%; under setting [8], -53%; under setting [9], 11%. The change in vivo at 100 mg/kg under setting [10] came to 287%.

On to `CC(C)(CCCCCCOCCCCCCC(C)(C)COP(=O)(O)O)COP(=O)(O)O` [Compound C], for which, under setting [3], the change in vivo at 30 mg/kg/day stood at 13%. The change in vivo at 30 mg/kg by setting is: under setting [4], 123%; under setting [5], 9%; under setting [6], -19%; under setting [7], 11%; under setting [8], -33%; under setting [9], 52%. Besides, the change in vivo at 30 mg/kg by setting is: under setting [10], 6%; under setting [11], 22%.

Turning to `CC(C)(CO)CCCCNCCCCC(C)(C)CO` [Compound H, 6-(6-Hydroxy-5,5-dimethylhexylamino)-2,2-dimethylhexan-1-ol], the change in vivo at 53 mg/kg/day (Rattus norvegicus, 336 h, obese female Zucker rats, oral daily, fourteen days, 53 mg/kg/day, read-out: % wt. gain) is 16%. The change in vivo at 53 mg/kg by setting is: (Rattus norvegicus, 336 h, obese female Zucker rats, oral daily, fourteen days, 53 mg/kg/day, read-out: BHA, Percent Change from Pre-treatment) 48%; (Rattus norvegicus, 336 h, obese female Zucker rats, oral daily, fourteen days, 53 mg/kg/day, read-out: Glucose, Percent Change from Pre-treatment) -23%; (Rattus norvegicus, 336 h, obese female Zucker rats, oral daily, fourteen days, 53 mg/kg/day, read-out: HDL-C, Percent Change from Pre-treatment) 16%; (Rattus norvegicus, 336 h, obese female Zucker rats, oral daily, fourteen days, 53 mg/kg/day, read-out: Insulin, Percent Change from Pre-treatment) -49%; (Rattus norvegicus, 336 h, obese female Zucker rats, oral daily, fourteen days, 53 mg/kg/day, read-out: NEFA, Percent Change from Pre-treatment) -55%; (Rattus norvegicus, 336 h, obese female Zucker rats, oral daily, fourteen days, 53 mg/kg/day, read-out: Non HDL-C, Percent Change from Pre-treatment) -10%. For the same compound, the change in vivo at 53 mg/kg is 5% (Rattus norvegicus, 336 h, obese female Zucker rats, oral daily, fourteen days, 53 mg/kg/day, read-out: TC, Percent Change from Pre-treatment) and -32% (Rattus norvegicus, 336 h, obese female Zucker rats, oral daily, fourteen days, 53 mg/kg/day, read-out: TG, Percent Change from Pre-treatment).

On to `CC(C)(CO)CCCCNC(=O)CCCCC(C)(C)CO` [Compound J, 7-Hydroxy-6,6-dimethylheptanoic acid (6-hydroxy-5,5-dimethylhexyl)-amide], for which the change in vivo at 30 mg/kg/day under setting [3] is 11%. The change in vivo at 30 mg/kg is 21% under setting [4]; 18% under setting [5]; 20% under setting [6]; -41% under setting [7]; -38% under setting [8]; -7% under setting [9]. In addition, the change in vivo at 30 mg/kg is 9% under setting [10] and -10% under setting [11].

Take `CC(C)(CO)CCCCOC(=O)CCCCC(C)(C)CO` [Compound K, 7-Hydroxy-6,6-dimethylheptanoic acid 6-hydroxy-5,5-dimethylhexyl ester]: under setting [3], the change in vivo at 100 mg/kg/day came to 11%. Besides, the change in vivo at 100 mg/kg is, setting by setting: under setting [4], 103%; under setting [5], -21%; under setting [6], 23%; under setting [7], 0%; under setting [8], 43%; under setting [9], -5%. The change in vivo at 100 mg/kg is, setting by setting: under setting [10], 12%; under setting [11], 7%.

As for `CC(C)(CO)CCCCOP(=O)(O)OCCCCC(C)(C)CO` [Compound L, phosphoric acid bis(5,5-dimethyl-6-hydroxy-hexyl)ester], the change in vivo at 80 mg/kg/day (Rattus norvegicus, 336 h, obese female Zucker rats, oral daily, fourteen days, 80 mg/kg/day, read-out: % wt. gain) is 0%. The change in vivo at 80 mg/kg (Rattus norvegicus, 336 h, obese female Zucker rats, oral daily, fourteen days, 80 mg/kg/day, read-out: BHA, Percent Change from Pre-treatment) amounted to 575%; the change in vivo at 80 mg/kg (Rattus norvegicus, 336 h, obese female Zucker rats, oral daily, fourteen days, 80 mg/kg/day, read-out: Glucose, Percent Change from Pre-treatment) was determined as 9%; the change in vivo at 80 mg/kg (Rattus norvegicus, 336 h, obese female Zucker rats, oral daily, fourteen days, 80 mg/kg/day, read-out: HDL-C, Percent Change from Pre-treatment) is 8%; the change in vivo at 80 mg/kg (Rattus norvegicus, 336 h, obese female Zucker rats, oral daily, fourteen days, 80 mg/kg/day, read-out: Insulin, Percent Change from Pre-treatment) is 21%; the change in vivo at 80 mg/kg (Rattus norvegicus, 336 h, obese female Zucker rats, oral daily, fourteen days, 80 mg/kg/day, read-out: NEFA, Percent Change from Pre-treatment) was determined as 62%; the change in vivo at 80 mg/kg (Rattus norvegicus, 336 h, obese female Zucker rats, oral daily, fourteen days, 80 mg/kg/day, read-out: Non HDL-C, Percent Change from Pre-treatment) was -17%. The change in vivo at 80 mg/kg reads like this: (Rattus norvegicus, 336 h, obese female Zucker rats, oral daily, fourteen days, 80 mg/kg/day, read-out: TC, Percent Change from Pre-treatment) -4%; (Rattus norvegicus, 336 h, obese female Zucker rats, oral daily, fourteen days, 80 mg/kg/day, read-out: TG, Percent Change from Pre-treatment) -13%.
